For 22 molecules, IC50 and solubility results are on record in patent USRE47302E1 (ONYX THERAPEUTICS INC., priority 2013, dated 2019).

Data set [1] has as its target T1, immunoproteasome subunit LMP7 (Homo sapiens, UniProt P28062).
T1 construct: Lysate from the human acute lymphoblastic leukemia cell line, MOLT-4; endogenous in cells; host or cells: MOLT-4
The data set is described as follows: Proteasome active-site ELISA (ProCISE), LMP7, MOLT-4 lysate. The format is biochemical. The protocol:
(§1) Test compounds were serially diluted in DMSO at 100× concentration, then diluted to 10× in aqueous hypotonic lysis buffer. Lysate from the human acute lymphoblastic leukemia cell line, MOLT-4, was treated for 1 hour at 25° C. with compound at a final 1× concentration. […] Following, lysate was denatured in guanidine hydrochloride, and subunits bound to probe were isolated with streptavidin-conjugated sepharose beads. Individual subunits (e.g., β5, LMP7, LMP2, MECL-1) were probed with subunit-specific primary antibodies, followed by HRP-conjugated secondary antibodies. A chemiluminescent substrate was used to generate signal associated with HRP binding, which was detected on a plate reader. Luminescent signal was normalized to protein content, then, percent activity calculated relative to DMSO-treated controls to generate IC50 curves.
(In an ELISA, binding on a coated surface is turned into a signal by an enzyme label.)

The target of data set [2] is T2, proteasome subunit β5 (beta5) (Homo sapiens, UniProt P28074).
T2 construct: Lysate from the human acute lymphoblastic leukemia cell line, MOLT-4; endogenous in cells; host or cells: MOLT-4
The data set is described as follows: Proteasome active-site ELISA (ProCISE), beta5, MOLT-4 lysate. To be noted: MOLT4 lysate, human, 1 h continuous treatment, 25° C. The format is biochemical. The protocol: as §1

A short description of another data set: Solubility pH 7. Particulars: pH 7, aqueous buffer.
Where [3] appears, read: MOLT4 lysate, 1 h continuous treatment, 25° C.

In brackets after ≈: the same amount, converted by molar mass. Like-named read-outs stand apart in the source and are kept apart here.

What is called IC50 is the concentration needed to halve the response being measured. In general, solubility refers to how much of the substance goes into solution per volume. A low value points to little dissolved substance. In the case of `COc1ccc(C[C@H](NC(=O)[C@H](C)NC(=O)CN2CCOCC2)C(=O)N[C@@H](CC2CCC2)C(=O)[C@@]2(C)CO2)cc1` [Compound C-1004, (S)-N-((S)-3-cyclobutyl-1-((R)-2-methyloxiran-2-yl)-1-oxopropan-2-yl)-3-(4-methoxyphenyl)-2-((S)-2-(2-morpholinoacetamido)propanamido)propanamide], the values for the half-maximal inhibitory concentration (IC50) in data set [1] (setting [3]) and in data set [2] were 541 nM and 1870 nM, respectively. The solubility in “Solubility pH 7” turned out to be 2500 µg/mL (≈ 4.47 mM).

`COc1ccc(C[C@H](NC(=O)[C@H](C)NC(=O)CN2CCOCC2)C(=O)N[C@@H](CC2CC2)C(=O)[C@@]2(C)CO2)cc1` [Compound C-1006, (S)-N-((S)-3-cyclopropyl-1-((R)-2-methyloxiran-2-yl)-1-oxopropan-2-yl)-3-(4-methoxyphenyl)-2-((S)-2-(2-morpholinoacetamido)propanamido)propanamide]: the IC50 is 5150 nM in data set [1] (setting [3]) and 5240 nM in data set [2]. Besides, the solubility in “Solubility pH 7” stood at 2590 µg/mL (≈ 4.75 mM).

As for `COc1ccc(C[C@H](NC(=O)[C@H](C)NC(=O)CN2CCOCC2)C(=O)N[C@@H](C[C@H]2CCCO2)C(=O)[C@@]2(C)CO2)cc1` [Compound C-1017, (S)-3-(4-methoxyphenyl)-N-((S)-1-((R)-2-methyloxhan-2-yl)-1-oxo-3-((R)-tetrahydrofuran-2-yl)propan-2-yl)-2-((S)-2-(2-morpholinoacetamido)propanamido)propanamide], the results for the 50% inhibitory concentration (IC50) in data set [1] (setting [3]) and in data set [2] were 1090 nM and 21700 nM, respectively. The amount in solution in “Solubility pH 7” (solubility) came to 11700 µg/mL (≈ 20.4 mM).

Take `COc1ccc(C[C@H](NC(=O)[C@H](C)NC(=O)CN2CCOCC2)C(=O)N[C@@H](CC2=CCCCC2)C(=O)[C@@]2(C)CO2)cc1` [Compound C-1019, (S)-N-((S)-3-(cyclohex-1-en-1-yl)-1-((R)-2-methyloxiran-2-yl)-1-oxopropan-2-yl)-3-(4-methoxyphenyl)-2-((S)-2-(2-morpholinoacetamido)propanamido)propanamide]: the midpoint of inhibition in data set [2], the IC50, lay at 9330 nM. The molecule also had a solubility in the data set “Solubility pH 7” of 1760 µg/mL (≈ 3.01 mM).

Take `COc1ccc(C[C@H](NC(=O)[C@H](C)NC(=O)CN2CCOCC2)C(=O)N[C@@H](CC2=CCOCC2)C(=O)[C@@]2(C)CO2)cc1` [Compound C-1020, (S)-N-((S)-3-(3,6-dihydro-2H-pyran-4-yl)-1-((R)-2-methyloxiran-2-yl)-1-oxopropan-2-yl)-3-(4-methoxyphenyl)-2-((S)-2-(2-morpholinoacetamido)propanamido)propanamide]: the figures for the IC50 in data set [1] (setting [3]) and in data set [2] were 1160 nM and 45000 nM, respectively. Moreover, the solubility in “Solubility pH 7” was found to be 6440 µg/mL (≈ 11 mM).

Regarding `COc1ccc(C[C@H](NC(=O)[C@H](C)NC(=O)CN2CCOCC2)C(=O)N[C@@H](CC2=CCCC2)C(=O)[C@H]2CO2)cc1` [Compound C-1038, (S)-N-((S)-3-(cyclopent-1-en-1-yl)-1-((R)-oxiran-2-yl)-1-oxopropan-2-yl)-3-(4-methoxyphenyl)-2-((S)-2-(2-morpholinoacetamido)propanamido)propanamide], the IC50 came to 9.07 nM in data set [1] (setting [3]) and 289 nM in data set [2]. In “Solubility pH 7”, this molecule yielded a solubility of 230 µg/mL (≈ 0.414 mM).

As to `C[C@H](NC(=O)CN1CCOCC1)C(=O)N[C@@H](Cc1ccc2c(c1)OCO2)C(=O)N[C@@H](CC1CCCC1)C(=O)[C@H]1CO1` [Compound C-1060, (S)-3-(benzo[d][1,3]dioxol-5-yl)-N-((S)-3-cyclopentyl-1-((R)-oxiran-2-yl)-1-oxopropan-2-yl)-2-((S)-2-(2-morpholinoacetamido)propanamido)propanamide], the 50% inhibitory concentration (IC50) in data set [1] (setting [3]) was determined as 12.4 nM; in data set [2], 423 nM. This molecule showed a solubility in the data set “Solubility pH 7” of 1380 µg/mL (≈ 2.4 mM).

Regarding `COc1ccc(C[C@H](NC(=O)[C@@H](C)NC(=O)[C@H]2CC[C@H](O)CC2)C(=O)N[C@@H](CC2CCCC2)C(=O)[C@@]2(C)CO2)cc1` [Compound C-1064, (1r,4R)-N-((R)-1-(((S)-1-(((S)-3-cyclopentyl-1-((R)-2-methyloxiran-2-yl)-1-oxopropan-2-yl)amino)-3-(4-methoxyphenyl)-1-oxopropan-2-yl)amino)-1-oxopropan-2-yl)-4-hydroxycyclohexanecarboxamide], the IC50 in data set [1] (setting [3]) worked out at 60.5 nM; in data set [2], 4050 nM.

With `COc1ccc(C[C@H](NC(=O)[C@@H](C)NC(=O)[C@H]2CC[C@H](O)CC2)C(=O)N[C@@H](CC2=CCCC2)C(=O)[C@@]2(C)CO2)cc1O` [Compound C-1065, (1r,4R)-N-((R)-1-(((S)-1-(((S)-3-(cyclopent-1-en-1-yl)-1-((R)-2-methyloxiran-2-yl)-1-oxopropan-2-yl)amino)-3-(3-hydroxy-4-methoxyphenyl)-1-oxopropan-2-yl)amino)-1-oxopropan-2-yl)-4-hydroxycyclohexanecarboxamide], the results for the 50% inhibitory concentration (IC50) in data set [1] (setting [3]) and in data set [2] were 34.6 nM and 1480 nM, respectively. The same molecule yielded a solubility in “Solubility pH 7” of 2660 µg/mL (≈ 4.55 mM).

On to `COc1ccc(C[C@H](NC(=O)[C@H](C)NC(=O)CN2CCOCC2)C(=O)N[C@@H](CC2CC=CC2)C(=O)[C@@]2(C)CO2)cc1` [Compound C-1066, (S)-N-((S)-3-(cyclopent-3-en-1-yl)-1-((R)-2-methyloxiran-2-yl)-1-oxopropan-2-yl)-3-(4-methoxyphenyl)-2-((S)-2-(2-morpholinoacetamido)propanamido)propanamide], for which the values for the half-inhibitory concentration (IC50) in data set [1] (setting [3]) and in data set [2] were 47.1 nM and 335 nM, respectively. For the same molecule, the solubility in “Solubility pH 7” stood at 3200 µg/mL (≈ 5.6 mM).

`C[C@H](NC(=O)CN1CCOCC1)C(=O)N[C@@H](Cc1ccc2[nH]ncc2c1)C(=O)N[C@@H](CC1CCCC1)C(=O)[C@@]1(C)CO1` [Compound C-1070, (S)-N-((S)-3-cyclopentyl-1-((R)-2-methyloxiran-2-yl)-1-oxopropan-2-yl)-3-(1H-indazol-5-yl)-2-((S)-2-(2-morpholinoacetamido)propanamido)propanamide]: the results for the IC50 in data set [1] (setting [3]) and in data set [2] were 209 nM and 1810 nM, respectively. Moreover, the solubility in the data set “Solubility pH 7” was 2140 µg/mL (≈ 3.67 mM).

Turning to `COc1ccc([C@@H](O)[C@H](NC(=O)[C@@H](C)NC(=O)[C@H]2CC[C@H](O)CC2)C(=O)N[C@@H](CC2=CCCC2)C(=O)[C@@]2(C)CO2)cc1` [Compound C-1080, (1r,4R)-N-((R)-1-(((2S,3R)-1-(((S)-3-(cyclopent-1-en-1-yl)-1-((R)-2-methyloxiran-2-yl)-1-oxopropan-2-yl)amino)-3-hydroxy-3-(4-methoxyphenyl)-1-oxopropan-2-yl)amino)-1-oxopropan-2-yl)-4-hydroxycyclohexanecarboxamide], the IC50 in data set [1] (setting [3]) is 25.2 nM; in data set [2], 1180 nM.

Turning to `COc1ccc(C[C@H](NC(=O)[C@H](C)NC(=O)CN2CCOCC2)C(=O)N[C@@H](C[C@H]2[C@@H]3CCC[C@@H]32)C(=O)[C@@]2(C)CO2)cc1` [Compound C-1142, (S)-N-((S)-3-((1R,5S,6r)-bicyclo[3.1.0]hexan-6-yl)-1-((R)-2-methyloxiran-2-yl)-1-oxopropan-2-yl)-3-(4-methoxyphenyl)-2-((S)-2-(2-morpholinoacetamido)propanamido)propanamide], the concentration in solution in “Solubility pH 7” (solubility) came to 2340 µg/mL (≈ 4 mM).

On to `COc1ccc(C[C@H](NC(=O)[C@@H](COCc2ccccc2)NC(=O)CN2CCOCC2)C(=O)N[C@@H](Cc2ccccc2)C(=O)[C@@]2(C)CO2)cc1` [Compound C-1156], for which the IC50 in data set [1] (read-out: ProCISE LMP7 MOLT4 lysate Hu 1 h CONT: IC50, 1 h continuous treatment, 25° C.) amounted to 50.8 nM; in data set [2] (read-out: ProCISE beta5 MOLT4 lysate Hu 1 h CONT: IC50) it was 175 nM.

`COc1ccc(C[C@H](NC(=O)[C@H](C)NC(=O)CN2CCOCC2)C(=O)N[C@@H](Cc2ccc(C#N)cc2)C(=O)[C@@]2(C)CO2)cc1` [Compound C-1163] returned a solubility in “Solubility pH 7” of 2460 µg/mL (≈ 4.06 mM).

Molecule `COc1ccc(C[C@H](NC(=O)[C@H](C)NC(=O)[C@@H]2CCCN2C)C(=O)N[C@@H](Cc2ccccc2)C(=O)[C@@]2(C)CO2)cc1` [Compound C-1165] yielded a solubility in the data set “Solubility pH 7” of 2150 µg/mL (≈ 3.8 mM).

Turning to `COc1ccc(C[C@H](NC(=O)[C@H](C)NC(=O)C2COC2)C(=O)N[C@@H](Cc2ccccc2)C(=O)[C@@]2(C)CO2)cc1` [Compound C-1168], the solubility in the data set “Solubility pH 7” was found to be 213 µg/mL (≈ 0.396 mM).

Take `COc1ccc(C[C@H](NC(=O)[C@H](C)NC(=O)C2CN(C)C2)C(=O)N[C@@H](Cc2ccccc2)C(=O)[C@@]2(C)CO2)cc1` [Compound C-1172, N-((S)-1-(((S)-3-(4-methoxyphenyl)-1-(((S)-1-((R)-2-methyloxiran-2-yl)-1-oxo-3-phenylpropan-2-yl)amino)-1-oxopropan-2-yl)amino)-1-oxopropan-2-yl)-1-methylazetidine-3-carboxamide]: the solubility in “Solubility pH 7” amounted to 1900 µg/mL (≈ 3.46 mM).

In turn, `COc1ccc(C[C@H](NC(=O)C(C)NC(=O)CN2CCOCC2)C(=O)N[C@H](C(=O)[C@@]2(C)CO2)c2ccccc2)cc1` (some centres unmarked) [Compound C-1176] yielded a solubility in “Solubility pH 7” of 1890 µg/mL (≈ 3.34 mM).

For `C[C@H](NC(=O)CN1CCOCC1)C(=O)N[C@@H](CC1CC1)C(=O)N[C@@H](Cc1ccccc1)C(=O)[C@@]1(C)CO1` [Compound C-1224, (S)-3-cyclopropyl-N-((S)-1-((R)-2-methyloxiran-2-yl)-1-oxo-3-phenylpropan-2-yl)-2-((S)-2-(2-morpholinoacetamido)propanamido)propanamide], the concentration in solution in the data set “Solubility pH 7” (solubility) came to 257 µg/mL (≈ 0.5 mM).

In turn, `COc1ccc(C[C@H](NC(=O)[C@H](C)NC(=O)CN2CCOCC2)C(=O)N[C@@H](CC(F)(F)F)C(=O)[C@@]2(C)CO2)cc1` [Compound C-1226] came in with a solubility in the data set “Solubility pH 7” of 3820 µg/mL (≈ 6.67 mM).

The molecule `CC#CC[C@H](NC(=O)[C@H](Cc1ccc(OC)cc1)NC(=O)[C@H](C)NC(=O)CN1CCOCC1)C(=O)[C@@]1(C)CO1` [Compound C-1228] showed a solubility in “Solubility pH 7” of 682 µg/mL (≈ 1.26 mM).
